Test results as given in patent publication US20150086618A1, “PHOSPHOLIPID MICELLAR AND LIPOSOMAL COMPOSITIONS AND USES THEREOF” (THE BOARD OF TRUSTEES OF THE UNIVERSITY OF ILLINOIS, priority 2008, published 2015).
“Also recorded” adds a separate entry of the source.

Experiments:
[1] = α-helicity of LP17 and control peptide in saline and SSM; assay type: physicochemical; conditions: peptide 20 μM, SSM 5 mM
Method: The α-helicity of LP17 (20 μM) in saline and in SSM (5 mM) was tested. A control peptide ([…] (SEQ ID NO:2)) was also tested in saline and in SSM at the same concentrations.

TREM-1 = experiment: Mouse model of ALI induced by aerosolized LPS, LP17 (Example 13); assay type: in vivo, Wild-type mice; conditions: 3 nmol s.c.; free peptide 48 and 24 h before LPS, nanomicellar 48 h before LPS
Method: The efficacy of nanomicellar LP17 was tested in a mouse model of ALI induced by aerosolized LPS. Wild-type mice were treated with LP17 or control peptide and with LP17 or control peptide self-associated with nanomicelles (each, 3 nmol; a dose similar to that used in previous experiments). Free peptides were administered subcutaneously 48 and 24 h before administration of LPS. Peptides self-associated with nanomicelles were administered to the mice only 48 h before LPS nebulization. Mice were exposed to nebulized LPS in a dose of 1 mg/ml for 40 min as previously described (Sadikot et al., Am. J. Respir. Crit. Care Med. 164: 873-8, 2001.) Control mice were treated with nebulized endotoxin-free PBS. TREM-1 was induced in lungs of mice at 4 hours after treatment with LPS. After 4 h, a bronchoalveolar lavage was carried out to determine total cell count and neutrophil count. Lungs, liver, and spleen were harvested from the mice and frozen for RNA and protein extraction. Real-time RT-PCR was carried out to analyze fold induction in TREM-1 gene expression.

[2] = Fluorescence anisotropy of GLP-1(7-36) in SSM / SSMM or saline; assay type: physicochemical; conditions: GLP-1(7-36) 125 μM in saline; n=3
Source text: Fluorescence anisotropy. […] The data indicated an increased viscosity of the peptide surrounding in the presence of SSM in contrast to saline.
This hypothesis was studied via determination of peptide fluorimetric anisotropy in the presence and absence of nanomicelles. This technique measures rigidity (or rotational freedom) of fluorophores by intensity of emitted fluorescence polarized parallel and perpendicular to that of excitation beam. A molecule that is restricted in its rotational motion due to viscous environment will emit fluorescence that is predominantly parallel to its excitation light source, giving a high anisotropy value.

ALI mice = experiment: LPS-nebulization acute lung injury model, treatment after start of LPS (Example 7); assay type: in vivo; conditions: cardiac puncture at conclusion of treatment; LPS-exposed mice
Method: Mice are induced with acute lung injury (ALI) by treatment with lipopolysaccharide (LPS) nebulization (as described by Sadikot et al. […]: 873-8, 2001; Koay et al., Am. J. Respir. Cell Mol. Biol. 26: 572-8, 2002). […]
A dose of drug was administered subcutaneously (s.c.) 30 min after initialization of aerosolized LPS nebulization. […] All mice were sacrificed 4 hr after completion of nebulization. For each animal, bronchoalveolar lavage was carried out and the lungs were removed for analysis. Data from untreated (control) mice (no LPS nebulization or drug treatment) was also included in the data analysis for comparison.

[3] = Blood glucose in mice with LPS-induced ALI (Example 17); assay type: in vivo; conditions: LPS-exposed mice, GLP-1 1250 μg/kg, cardiac puncture at conclusion
Method: Blood was obtained by cardiac puncture at the conclusion of the treatment. Median glucose concentration was 109, 183, 157, and 125 mg/dl, respectively.

[4] = Hydrophilicity/hydrophobicity balance of peptide; assay type: physicochemical
[5] = Dynamic light scattering (NICOMP) particle size of PxB, PxB with DSPE-PEG2000 and SSM in saline; assay type: physicochemical; conditions: for particle size distribution with scale 10-10,000 nm: 6.9 mM PxB in saline, 2 hours, 25° C.
Method: In order to determine the optimum peptide to lipid ratio of PxB to SSM, fluorescence spectroscopy and NICOMP analysis were carried out on PxB at varying concentrations in sterile normal saline (SNS) and with DSPE-PEG2000 at a fixed concentration. In these experiments, PxB Sulphate (MW […], Research Products International Corp, Cat: P40160-1.0, Lot#003746), DSPE-PEG2000 (MW 2811 g/mol, Lipoid, Cat#PE18:0/18:0/PEG 2000, Lot#899346-1/10), Methanol, and HEPES Buffer (pH˜7.4) were used. Controls: SSM (1 mM) and Samples: PxB-SSM (1:1000) were prepared.
Specifically, PxB (at various concentrations ranging from 0.5 mM to 6.9 mM) in sterile normal saline (SNS) was incubated with DSPE-PEG2000 (1 mM). Stock solutions of PxB and DSPE-PEG2000 were prepared and equilibrated for 2 hours. After the 2 hour equilibration, stock solutions were characterized by dynamic light scattering (DLS) using the NICOMP 380 Submicron Particle Sizer (Particle Sizing Systems, Inc. Santa Barbara, Calif.). […] A SSM sample (1 mM) (n=1) was prepared in saline alone for comparison with the PxB-SSM samples. Concurrent samples of PxB (0.5, 1.0, 2.3 and 6.9 mM) were prepared in saline alone or with SSM (DSPE-PEG2000, 1 mM) (n=8). The samples were measured for 30 minutes using DLS at approximately 2, 24, and 48 hours after time 0.

[6] = DSPE-PEG2000:PxB saturation ratio by fluorescence spectroscopy; assay type: physicochemical; conditions: at saturation point
Method: To determine the saturation point for DSPE-PEG2000 with PxB, fluorescence spectroscopy was carried out. PxB concentration was fixed at 50 μM and the concentration of DSPE-PEG2000 was varied to allow DSPE-PEG2000:PxB ratios of 1:1, 3:1, 6:1, 10:1, 20:1, 60:1, and 100:1. A stock solution of DSPE-PEG2000 was prepared and allowed to equilibrate at 25° C. in the dark under argon gas for two hours. A stock solution of PxB (100 μM) was prepared in HEPES Buffer. Samples were prepared by pipetting the appropriate amount of buffer and stock solutions into each vial. Fluorescence measurements were made after allowing each sample to equilibrate for 1 hour in the dark at 25° C. 400 μl of each sample was measured three times by the spectrofluorometer. The maximum intensity of each sample was recorded from the spectrofluorometer and analyzed using Microsoft Excel and Sigma Plot.
To fit a curve to the graph of the data the equation was used because its shape best fit the data, where
When the lipid to peptide ratio approaches infinity, a plateau is reached in terms of the fluorescence intensity and the equation becomes where yp is the height of the plateau. […]
Using this value as y, the lipid to peptide saturation point can be calculated by substituting the values into the equation and solving for x, […]

In the case of “LQVTDSGLYRCVIYHPP (SEQ ID NO: 1) (listed as Mus musculus) [LP17]”, the “percent α-helicity in SSM compared to saline” value [1] is reported as “significantly greater” and the “expression of TREM-1 mRNA” value (TREM-1) is reported as “attenuated”.
With glucagon-like peptide I (7-36) [GLP-1] the fluorescence anisotropy [2] was 0.045±0.012, the “Median blood glucose concentration” value (ALI mice) was 157 mg/dL and the Median glucose concentration [3] was 157 mg/dL. It also gave a hydrophilicity/hydrophobicity balance [4] of about 0.987.
In the case of polymyxin B [PxB], the “critical micelle concentration (CMC) of PxB” value [5] is reported as 1.0 to 2.3 mM, the “particle size (diameter), INT-WT NICOMP” value ([5]; 0.5 mM PxB, saline alone or with 1.0 mM DSPE-PEG2000, 24 hours) is reported as “approximately 520 nm” and the “particle size (diameter)” value ([5]; 1.0 mM PxB, 24 hours) is reported as 520 nm. For the same substance, the “particle size (diameter), INT-WT NICOMP” value ([5]; 1.0 mM PxB, saline alone or with 1.0 mM DSPE-PEG2000, 2 hours) was 240 nm, the “large aggregates observed or not” value ([5]; 2.3 mM PxB) was “large aggregates were observed” and the “particle size (diameter), INT-WT NICOMP” value ([5]; 2.3 mM PxB, saline alone or with 1 mM DSPE-PEG2000, 2 hours) was “approximately 850 nm”. For the same substance, the “particle size distribution with scale 10-10,000 nm” value [5] was “did not show peaks”, the “particle size distribution with scale 10-10,000 nm” value ([5]; listed as PxB sulfate) was “no large aggregates” and the “average particle size (diameter)” value ([5]; 6.9 mM PxB, 24 and 48 hour time points) was 517 nm. For the same substance, the “particle size (diameter), VOL-WT NICOMP” value ([5]; 6.9 mM PxB, 48 hours) was 4 nm, the “particle size (diameter), INT-WT NICOMP” value ([5]; 6.9 mM PxB, saline alone or with 1 mM DSPE-PEG2000, 2 hours, listed as PxB sulfate) was 640 nm and the “particle size (diameter), INT-WT NICOMP” value ([5]; 6.9 mM PxB, saline alone or with 1 mM DSPE-PEG2000, 48 hours) was 4 nm. The “particle size (diameter), INT-WT NICOMP” value ([5]; 6.9 mM PxB, saline alone or with 1 mM DSPE-PEG2000, 48 hours, listed as PxB sulfate) was 517 nm, the “aggregation of PxB” value ([5]; all concentrations tested (0.5-6.9 mM), saline, 2-48 hours) was “showed aggregation of the peptide; also recorded: formed aggregates” and the PxB aggregate formation ([5]; range of concentrations tested, 10 μM to 23 mM) was “aggregates formed”. The “molecules of PxB per micelle” value [6] was 3.6.
